Conditions: in water

CCCCn1cc[n+](C)c1.F[P-](F)(F)(F)(F)F
Conditions	solubility (mole fraction)
278.75 K	0.0009
283.55 K	0.00102
289.55 K	0.00108
295.95 K	0.00126
302.25 K	0.00146
310.35 K	0.00171
314.95 K	0.00195
319.65 K	0.00218
326.65 K	0.00244
333.25 K	0.0029
338.35 K	0.00339
344.35 K	0.00371
350.85 K	0.00444
357.35 K	0.00532
362.15 K	0.00628

CCCCCCn1cc[n+](C)c1.F[P-](F)(F)(F)(F)F
Conditions	solubility (mole fraction)
286.45 K	0.000326
296.65 K	0.00041
302.65 K	0.000448
307.85 K	0.000503
312.95 K	0.000545
319.35 K	0.00066
326.35 K	0.000734
331.75 K	0.000852
336.15 K	0.000919
340.25 K	0.00105
345.85 K	0.00113
350.75 K	0.00128
355.25 K	0.00144
359.95 K	0.00157
363.05 K	0.0018

CCCCCCCCn1cc[n+](C)c1.F[P-](F)(F)(F)(F)F
Conditions	solubility (mole fraction)
285.85 K	9.4e-05
293.95 K	0.000116
299.05 K	0.000128
307.35 K	0.000154
311.35 K	0.000169
318.15 K	0.000197
324.75 K	0.000216
328.15 K	0.000239
331.15 K	0.000257
338.85 K	0.000304
343.35 K	0.000345
348.45 K	0.000383
353.75 K	0.000445
358.55 K	0.000505
364.55 K	0.000574

From BigSolDB 2.1
